In US9585876B2 (NuSirt Sciences, Inc., priority 2013, dated 2017):
One block for each molecule: values may come before it.

Legend:
[1] = oral dosing of about 3,000 mg; cited from earlier work
C. elegans = assay: Lifespan of C. elegans (Example 8); type: in vivo, Caenorhabditis elegans; details: leucine (0.5 mM) or nicotinic acid (10 nM), each alone
Protocol: Eggs were hatched on a starved plate overnight. […] To study lifespan, 50 young adult worms were placed on NGM agar plates seeded with E. coli strain OP-50 (=day 1 of study). All treatments were added with the indicated concentrations to the agar plates. […] The worms were maintained at 21° C. throughout the duration of the study. Worms were transferred to new plates daily to eliminate progeny. […] The study was continued until the last animal was dead. Data were analyzed via Kaplan-Meier survival curves using Prism 6 (GraphPad Software) and statistical significance was determined by the Log-rank (Mantel-Cox) test.

[2] = tested on: LDL receptor knockout (LDLRKO) mice; assay: Plasma total cholesterol, cholesterol esters and triglycerides in LDLRKO mice on western diet, 28 days (Example 7); type: in vivo
Protocol: The mice were provided free access to an atherogenic western diet (WD) containing 0.21% cholesterol (by weight) and 40% calories from fat and water for 4 weeks prior to treatment. […] The treatments were administered for 28 days continuously.
Blood samples of the mice in all groups were obtained from tails of the mice at day 28 after the administration. The serum/plasma levels of triglyceride, total cholesterol and cholesterol esters were measured.

AMPK = details: 3T3-L1 adipocytes; concentrations of nicotinic acid <100 nM alone
Protocol: 3T3-L1 preadipocytes (American Type Culture Collection) were plated at a density of 8000 cells/cm2 (10 cm2 dish) and grown in Dulbecco's modified eagle's medium (DMEM) containing 10% fetal bovine serum (FBS), and antibiotics (growth medium) at 37° C. in 5% CO2. […] Preadipocytes were maintained in this differentiation medium for 3 days and subsequently cultured in growth medium. Cultures were re-fed every 2-3 days to allow >90% cells to reach fully differentiation before conducting chemical treatment.
Western blotting was performed with antibodies against AMPK and Phospho-AMPKα (Thr172) obtained from Cell Signaling (Danvers, Mass.). […] Total 30 μg of protein from the cell lysate was resolved on 10% Tris/HCL polyacrylamide gels (Criterion precast gel, Bio-Rad Laboratories, Hercules, Calif.), transferred to PVDF membranes, incubated in blocking buffer (3% BSA in TBS), incubated with primary antibody (P-AMPK), washed and incubated with secondary horseradish peroxidase-conjugated antibody.

[3] = tested on: Patients that are pre-diagnosed with hyperlipidemia; assay: Lipid levels and cutaneous vasodilation in hyperlipidemia patients, 60 days (Example 5); type: in vivo, human; details: for HDL level compared to day 0 values / triglyceride, LDL and cholesterol levels compared to day 0 values: orally twice a day, 60 days
Protocol: Patients that are pre-diagnosed with hyperlipidemia are admitted for the randomized and double blind study. […] The treatments are administered orally twice a day, for 60 days continuously.
Blood samples of the patients in all groups are obtained from at day 0, 30 and 60 after the administration. The serum/plasma levels of triglyceride, cholesterol, LDL and HDL are measured. Cutaneous vasodilation is measured by laser-Doppler flowmeter and the discomfort level described by the patients.

Sirt1 = Sirt1 level by Western blotting in C2C12 myotubes (Example 1)
[4] = tested on: Patients that experience acute chest pain and are pre-diagnosed with hyperlipidemia; assay: Atherosclerotic plaque size by quantitative coronary angiography in patients, 3 years (Example 6); type: in vivo, human; details: orally twice a day, (a) 50 mg nicotinic acid alone, (b) 50 mg nicotinic acid + 1135 mg leucine, (c) 50 mg nicotinic acid + 1135 mg leucine + 50 mg resveratrol, (d) 1135 mg leucine + 50 mg resveratrol
Protocol: The treatments are administered orally twice a day, for 3 years continuously. The size of atherosclerotic plaque is measured at day 0, months 6, 12, 18, 24, 30 and 36 by quantitative coronary angiography.

[5] = tested on: LDL receptor knockout (LDLRKO) mice; assay: Lipid levels, atherosclerotic plaque and cutaneous vasodilation in LDLRKO mice on atherogenic diet, 60 days (Example 4); type: in vivo; details: for HDL level in the blood stream compared to negative control group (atherogenic diet only) / triglyceride, LDL and cholesterol levels in the blood stream compared to negative control group (atherogenic diet only): 60 days
Protocol: All chemicals are purchased from Sigma.
Cutaneous vasodilation is measured by laser-Doppler flowmeter.

[6] = group (e) 3000 mg nicotinic acid alone
[7] = group (e) 10 g nicotinic acid/kg diet alone

Structure (SMILES): NC(=O)c1ccc[n+]([C@@H]2O[C@H](CO)[C@@H](O)[C@H]2O)c1 [nicotinamide riboside]
- circulating level of nicotinic acid or nicotinamide riboside in a subject [1]: about 10 μM

- cutaneous vasodilation compared to all the other groups including placebo ([3]; 3000 mg of nicotinic acid alone, laser-Doppler flowmeter and discomfort level): significant higher
- cutaneous vasodilation compared to all the other groups including control groups ([5]; 10 g of nicotinic acid/kg diet alone, laser-Doppler flowmeter): significant higher
Structure (SMILES): O=C(O)c1cccnc1 [nicotinic acid]
- circulating level of nicotinic acid or nicotinamide riboside in a subject [1]: about 10 μM
- effect on lifespan (C. elegans): no independent effect
- decrease in cholesterol esters ([2]; nicotinic acid 1,000 mg/kg diet, p<0.002): 28%
- decrease in total cholesterol ([2]; nicotinic acid 1,000 mg/kg diet, p<0.01): 20%
- effect of nicotinic acid alone on the variable studied (P-AMPK/AMPK), dose-response study (AMPK): no effect
- HDL level compared to day 0 values ([3]; (a) 50 mg nicotinic acid alone, (b) 50 mg nicotinic acid + 1135 mg leucine, (c) 50 mg nicotinic acid + 1135 mg leucine + 50 mg resveratrol): similar, without statistically significant difference
- triglyceride, LDL and cholesterol levels compared to day 0 values ([3]; (a) 50 mg nicotinic acid alone, (b) 50 mg nicotinic acid + 1135 mg leucine, (c) 50 mg nicotinic acid + 1135 mg leucine + 50 mg resveratrol, (d) 1135 mg leucine + 50 mg resveratrol): similar, without statistically significant difference
- HDL level compared to day 0 values [3, 6]: significantly higher
- triglyceride, LDL and cholesterol levels compared to day 0 values [3, 6]: significantly lower
- Sirt1 levels (Sirt1; 24 hours, nicotinic acid 10 nM, leucine 0.5 mM, nicotinic acid alone): did not have a significant effect
- effect of nicotinic acid alone on the variable studied (Sirt1), dose-response study (Sirt1; concentrations of nicotinic acid <100 nM alone): no effect
- atherosclerotic plaque (lesion) size compared to day 0 values [4]: similar, without statistically significant difference
- HDL level in the blood stream compared to negative control group (atherogenic diet only) [5, 7]: significantly higher
- triglyceride, LDL and cholesterol levels in the blood stream compared to negative control group (atherogenic diet only) [5, 7]: significantly lower
- HDL level in the blood stream compared to negative control group (atherogenic diet only) ([5]; per kg diet: (a) 250 mg nicotinic acid alone, (b) 250 mg nicotinic acid + 24 g leucine, (c) 50 mg nicotinic acid + 24 g leucine + 12.5 mg resveratrol): similar, without statistically significant difference
- triglyceride, LDL and cholesterol levels in the blood stream compared to negative control group (atherogenic diet only) ([5]; per kg diet: (a) 250 mg nicotinic acid alone, (b) 250 mg nicotinic acid + 24 g leucine, (c) 50 mg nicotinic acid + 24 g leucine + 12.5 mg resveratrol, (d) 24 g leucine + 12.5 mg resveratrol): similar, without statistically significant difference
- atherosclerotic lesion size in the aorta ([5]; day 60, group (e) 10 g nicotinic acid/kg diet alone): significantly reduced
- atherosclerotic lesion size in the aorta ([5]; day 60, per kg diet: (a) 250 mg nicotinic acid alone, (b) 250 mg nicotinic acid + 24 g leucine, (c) 50 mg nicotinic acid + 24 g leucine + 12.5 mg resveratrol, (d) 24 g leucine + 12.5 mg resveratrol): No significant reduction

Structure (SMILES): CC(C)C[C@H](N)C(=O)O [leucine]
- effect on lifespan (C. elegans): no independent effect
- effect on cholesterol esters ([2]; leucine 24 g/kg diet alone): no independent effect
- effect on total cholesterol ([2]; leucine 24 g/kg diet alone): no independent effect
